In patent US8258260B2, “Tumor-associated peptides binding promiscuously to human leukocyte antigen (HLA) class II molecules” (Immatics Biotechnologies GmbH, priority 2005, dated 2012):

System: CD4-positive T-cells
Assay: In vitro T-cell priming with peptide-pulsed autologous DCs, intracellular IFNγ staining of CD4-positive T-cells
Assay type: cell-based, human
Details: for CD4+ T-cell IFNγ response to peptide: donors 1, 2 and 3, positive = more than two-fold over negative controls
Procedure: Maturation of DCs: DCs were prepared using blood from healthy donors. Briefly, PBMCs were isolated using standard gradient centrifugation (Lymphocyte Separation Medium, PAA Laboratories GmbH, Pasching, Austria) and plated at a density of 7×10^6 cells/ml in X-Vivo 15 medium. After 2 hours at 37° C., non-adherent cells were removed and adherent monocytes cultured for 6 days in X-Vivo medium with 100 ng/ml GM-CSF and 40 ng/ml IL-4 (AL-ImmunoTools, Friesoythe, Germany). On day 7, immature DCs were activated with 10 ng/ml TNF-α (R&D Systems, Wiesbaden, Germany) and 20 μg/ml poly(IC) (Sigma Aldrich, Steinheim, Germany) for 3 days.
Generation of antigen-specific CD4-positive T-cells: 10^6 PBMCs per well were stimulated with 2×10^5 peptide pulsed (5 μg/ml) autologous DCs. Cells were incubated in 96-well plates (7 wells per donor and per peptide) with T-cell medium: supplemented RPMI 1640 in the presence of 10 ng/ml IL-12 (Promocell, Heidelberg, Germany). After 3 to 4 days of co-incubation at 37° C., fresh medium with 80 U/ml IL-2 (Proleukin, Chiron Corporation, Emeryville, Calif., USA) and 5 ng/ml IL-7 (Promocell) was added. Restimulations were done with autologous PBMCs plus peptide every 6 to 8 days.
Intracellular IFNγ staining: After 3 and 4 rounds of stimulation, PBMCs were thawed, washed twice in X-Vivo 15 medium, resuspended at 10^7 cells/ml in T-cell medium and cultured overnight. On the next day, PBMCs, pulsed with 5 μg/ml peptide, were incubated with effector cells in a ratio of 1:1 for 6 h. Golgi-Stop (Becton Dickinson, Heidelberg, Germany) was added for the final 4 h of incubation.
Cells were analyzed using a Cytofix/Cytoperm Plus kit (Becton Dickinson) and CD4-FITC-(Immunotools), IFNγ-PE- and CD8-PerCP clone SK1-antibodies (Becton Dickinson). For negative controls, cells of seven wells were pooled and incubated either with irrelevant peptide or without peptide, respectively. Stimulation with PMA/Ionomycin was used for positive control. Cells were analyzed on a three-color FACSCalibur (Becton Dickinson).
To generate antigen-specific CD4-positive T-cells and to test the peptides for promiscuous binding, PBMCs of 4 healthy donors with different HLA-DR alleles (FIG. 2), one of them carrying DRB1*1101, were stimulated using peptide-pulsed autologous DCs. […] As a read-out system for the generation of antigen-specific CD4-positive T-cells, IFNγ levels were assessed by flow cytometry. T-cells were analyzed after the third and fourth weekly stimulation by intracellular IFNγ staining plus CD4-FITC and CD8-PerCP staining to determine the percentage of IFNγ-producing cells in specific T-cell subpopulations. […]

| Sequence | maximal frequency of IFNγ producing CD4+ T-cells (donor 2) [%] | maximal frequency of IFNγ producing CD4+ T-cells (donor 3) [%] | CD4+ T-cell IFNγ response to peptide |
| --- | --- | --- | --- |
| HSKIIIIKKGHAK (listed as Homo sapiens) [SEQ ID NO: 48] | 0.05 | 0.07 | – |
| NPPSMVAAGSVVAAV (listed as Homo sapiens) [SEQ ID NO: 49] | – | – | showed IFNγ responses |
| SQDDIKGIQKLYGKRS [SEQ ID NO: 1] | – | – | showed CD4^+ T-cells reactive |
